In brackets after ≈: the same amount, converted by molar mass.
System: Escherichia coli
Test: minimum inhibitory concentration (MIC)
Protocol: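 Broth microdilution MIC (Sensititre BOPO7F bovine plate, CLSI methods) of 19 antimicrobials against field isolates of P. multocida, M. haemolytica, H. somni (deep nasopharyngeal swabs) and E. coli, Enterococcus spp. (rectal swabs) from weaned dairy heifers. Incubation 16-24 h at 35 C. MIC is the lowest concentration preventing visible growth. Values with <= or > lie at the tested range limits. Trimethoprim-sulfamethoxazole is given as the trimethoprim component of a 1:19 mixture.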

CN1C[C@@H]2C[C@H]1CN2c1cc2c(cc1F)c(=O)c(C(=O)O)cn2C1CC1 [Danofloxacin]
Conditions	minimum inhibitory concentration [µg/mL]
isolate (source animal id): 8	≤ 0.12
isolate (source animal id): 9	> 1
isolate (source animal id): 10	≤ 0.12
isolate (source animal id): 11	≤ 0.12
isolate (source animal id): 12	> 1
isolate (source animal id): 13	≤ 0.12
isolate (source animal id): 14	0.5 (≈ 1.4 µM)
isolate (source animal id): 15	≤ 0.12
isolate (source animal id): 16	≤ 0.12
isolate (source animal id): 98	≤ 0.12
isolate (source animal id): 99	≤ 0.12
isolate (source animal id): 100	≤ 0.12
isolate (source animal id): 101	≤ 0.12
isolate (source animal id): 102	≤ 0.12
isolate (source animal id): 103	≤ 0.12
isolate (source animal id): 104	≤ 0.12
isolate (source animal id): 105	≤ 0.12
isolate (source animal id): 106	> 1
isolate (source animal id): 107	≤ 0.12
isolate (source animal id): 108	≤ 0.12
isolate (source animal id): 109	≤ 0.12
isolate (source animal id): 110	≤ 0.12
isolate (source animal id): 111	> 1
isolate (source animal id): 112	≤ 0.12
isolate (source animal id): 113	> 1
isolate (source animal id): 114	≤ 0.12
isolate (source animal id): 115	1 (≈ 2.8 µM)
isolate (source animal id): 116	> 1
isolate (source animal id): 117	≤ 0.12
isolate (source animal id): 118	0.5 (≈ 1.4 µM)
isolate (source animal id): 119	> 1
isolate (source animal id): 120	1 (≈ 2.8 µM)
isolate (source animal id): 121	≤ 0.12
isolate (source animal id): 122	≤ 0.12
isolate (source animal id): 123	≤ 0.12
isolate (source animal id): 124	> 1
isolate (source animal id): 125	≤ 0.12
isolate (source animal id): 126	> 1
isolate (source animal id): 127	≤ 0.12
isolate (source animal id): 128	≤ 0.12
isolate (source animal id): 129	1 (≈ 2.8 µM)
isolate (source animal id): 130	≤ 0.12
isolate (source animal id): 131	> 1
isolate (source animal id): 132	0.5 (≈ 1.4 µM)
isolate (source animal id): 133	≤ 0.12
isolate (source animal id): 134	≤ 0.12
isolate (source animal id): 135	≤ 0.12
isolate (source animal id): 136	≤ 0.12
isolate (source animal id): 137	1 (≈ 2.8 µM)
isolate (source animal id): 138	> 1
isolate (source animal id): 139	0.25 (≈ 0.7 µM)
isolate (source animal id): 140	≤ 0.12
isolate (source animal id): 141	≤ 0.12
isolate (source animal id): 142	≤ 0.12
isolate (source animal id): 143	1 (≈ 2.8 µM)
isolate (source animal id): 144	> 1
isolate (source animal id): 145	≤ 0.12
isolate (source animal id): 146	0.5 (≈ 1.4 µM)
isolate (source animal id): 147	> 1
isolate (source animal id): 148	0.25 (≈ 0.7 µM)
isolate (source animal id): 149	≤ 0.12
isolate (source animal id): 150	≤ 0.12
isolate (source animal id): 151	≤ 0.12
isolate (source animal id): 152	≤ 0.12
isolate (source animal id): 153	≤ 0.12
isolate (source animal id): 154	0.5 (≈ 1.4 µM)
isolate (source animal id): 155	≤ 0.12
isolate (source animal id): 156	0.5 (≈ 1.4 µM)
isolate (source animal id): 157	≤ 0.12
isolate (source animal id): 158	≤ 0.12
isolate (source animal id): 159	≤ 0.12
isolate (source animal id): 160	≤ 0.12
isolate (source animal id): 161	≤ 0.12
isolate (source animal id): 162	> 1
isolate (source animal id): 163	≤ 0.12
isolate (source animal id): 164	≤ 0.12
isolate (source animal id): 165	≤ 0.12
isolate (source animal id): 166	≤ 0.12
isolate (source animal id): 167	≤ 0.12
isolate (source animal id): 168	≤ 0.12
isolate (source animal id): 169	≤ 0.12
isolate (source animal id): 170	≤ 0.12
isolate (source animal id): 171	≤ 0.12
isolate (source animal id): 172	≤ 0.12
isolate (source animal id): 173	≤ 0.12
isolate (source animal id): 174	≤ 0.12
isolate (source animal id): 175	≤ 0.12
isolate (source animal id): 176	≤ 0.12
isolate (source animal id): 177	≤ 0.12
isolate (source animal id): 178	≤ 0.12
isolate (source animal id): 179	≤ 0.12
isolate (source animal id): 180	≤ 0.12
isolate (source animal id): 181	≤ 0.12
isolate (source animal id): 182	≤ 0.12
isolate (source animal id): 183	≤ 0.12
isolate (source animal id): 184	≤ 0.12
isolate (source animal id): 185	≤ 0.12
isolate (source animal id): 186	≤ 0.12
isolate (source animal id): 187	≤ 0.12
isolate (source animal id): 188	> 1

Source: the supplement of paper PMC8612539
